The results in this text go back to patent publication US8691818B2, “Cyclic triazo and diazo sodium channel blockers” (University Of Greenwich, priority 2008, dated 2014).

Where a name gives a salt, the structure may show the parent alone.

As a reminder, the melting point is the temperature of the solid-liquid transition. Compound `Cn1nc(C2(c3ccc(Cl)cc3)CCCC2)c(N)nc1=N` (as salt: methanesulfonate) [CEN-150, 5(3)-Amino-6-{1-[1-(4-chlorophenyl)]cyclopentyl}-2,3(2,5)-dihydro-3(5)-imino-2-methyl-1,2,4-triazine methanesulfonate] showed a melting point of 272 to 273 °C.

As to `Cn1nc(-c2ccc3ccccc3c2)c(N)nc1=N` (as salt: methanesulfonate) [CEN-76, 5(3)-Amino-6-(2-naphthyl)-2,3(2,5)-dihydro-3(5)-imino-2-methyl-1,2,4-triazine methanesulfonate], the melting point was 243 to 244 °C. For the compound `CCn1nc(-c2cc(C(F)(F)F)cc(Cl)c2F)c(N)nc1=N` (as salt: mesylate) [CEN-203, 5(3)-Amino-6-(3-chloro-2-fluoro-5-trifluoromethyphenyl)-2,3(2,5)-dihydro-3(5)-imino-2-ethyl-1,2,4-triazine mesylate], the melting point lay in the range of 277 to 279 °C. With `Cn1nc(-c2cc(F)c(F)cc2Cl)c(N)nc1=N` (as salt: mesylate) [CEN-204, 5(3)-Amino-6-(2-chloro-4,5-difluoro-5-phenyl)-2,3(2,5)-dihydro-3(5)-imino-2-methyl-1,2,4-triazine mesylate], the melting point was 319 to 321 °C.

`CCn1nc(-c2cccs2)c(N)nc1=N` (as salt: methanesulfonate) [CEN-62, 5(3)-Amino-6-(2-thienyl)-2,3(2,5)-dihydro-3(5)-imino-2-ethyl-1,2,4-triazine methanesulfonate] had a melting point of 194 to 196 °C.

The compound `CCn1nc(-c2cccc(-c3ccccc3)c2)c(N)nc1=N` (as salt: methanesulfonate) [CEN-162, 5(3)-Amino-6-(3-biphenyl)-2,3(2,5)-dihydro-3(5)-imino-2-ethyl-1,2,4-triazine methanesulfonate] returned a melting point of 224 to 226 °C.
